In the supplement of paper PMC10307832:

How the values were obtained:
Assay in all cases: relative viability (nuclei count vs DMSO), 5 days (fraction); higher = more cells survive
Metformin + Foretinib = compound: CN(C)C(=N)NC(=N)N [Metformin] + COc1cc2c(Oc3ccc(NC(=O)C4(C(=O)Nc5ccc(F)cc5)CC4)cc3F)ccnc2cc1OCCCN1CCOCC1 [Foretinib] (partner 0.25 µM)
Outline: (§1)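 Lung cancer cell lines were pin-tool dosed in 1536-well plates on the day after seeding, with either a lone drug or a fixed anchor-drug dose plus five library-drug doses (not always all listed) in √10 steps. Nuclei were counted on 4× images after 5 days. Relative viability is the ratio of treated-well to vehicle-well nuclei counts, with each value a median of duplicate plates.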

Metformin + Lapatinib = compound: CN(C)C(=N)NC(=N)N [Metformin] + CS(=O)(=O)CCNCc1ccc(-c2ccc3ncnc(Nc4ccc(OCc5cccc(F)c5)c(Cl)c4)c3c2)o1 [Lapatinib] (partner 2 µM)
Outline: as §1

Apatinib + OSI-027 = compound: N#CC1(c2ccc(NC(=O)c3cccnc3NCc3ccncc3)cc2)CCCC1 [Apatinib] + COc1cccc2cc(-c3nc([C@H]4CC[C@H](C(=O)O)CC4)n4ncnc(N)c34)[nH]c12 [OSI-027] (partner 0.5 µM)
Outline: as §1

Apatinib + AZD7762 = compound: N#CC1(c2ccc(NC(=O)c3cccnc3NCc3ccncc3)cc2)CCCC1 [Apatinib] + NC(=O)Nc1cc(-c2cccc(F)c2)sc1C(=O)N[C@H]1CCCNC1 [AZD7762] (partner 0.2 µM)
Outline: as §1

NCI-H647
relative viability (Metformin + Foretinib; first compound 10 µM): 1.08
relative viability (Metformin + Foretinib; first compound 31.62 µM): 1.07
relative viability (Metformin + Foretinib; first compound 100 µM): 1.26
relative viability (Metformin + Foretinib; first compound 316.23 µM): 0.932
relative viability (Metformin + Foretinib; first compound 1000 µM): 1.1
relative viability (Metformin + Lapatinib; first compound 10 µM): 1.04
relative viability (Metformin + Lapatinib; first compound 31.62 µM): 1.14
relative viability (Metformin + Lapatinib; first compound 100 µM): 0.933
relative viability (Metformin + Lapatinib; first compound 316.23 µM): 1.04
relative viability (Metformin + Lapatinib; first compound 1000 µM): 1.1
relative viability (Apatinib + OSI-027; first compound 0.08 µM): 0.77
relative viability (Apatinib + OSI-027; first compound 0.253 µM): 0.619
relative viability (Apatinib + OSI-027; first compound 0.8 µM): 0.576
relative viability (Apatinib + OSI-027; first compound 2.53 µM): 0.593
relative viability (Apatinib + OSI-027; first compound 8 µM): 0.528
relative viability (Apatinib + AZD7762; first compound 0.253 µM): 0.482
relative viability (Apatinib + AZD7762; first compound 0.8 µM): 0.372
relative viability (Apatinib + AZD7762; first compound 2.53 µM): 0.341
relative viability (Apatinib + AZD7762; first compound 8 µM): 0.344

NCI-H661
relative viability (Metformin + Foretinib; first compound 10 µM): 0.809
relative viability (Metformin + Foretinib; first compound 31.62 µM): 0.877
relative viability (Metformin + Foretinib; first compound 100 µM): 0.879
relative viability (Metformin + Foretinib; first compound 316.23 µM): 0.834
relative viability (Metformin + Foretinib; first compound 1000 µM): 0.916
relative viability (Metformin + Lapatinib; first compound 10 µM): 0.58
relative viability (Metformin + Lapatinib; first compound 31.62 µM): 0.783
relative viability (Metformin + Lapatinib; first compound 100 µM): 0.811
relative viability (Metformin + Lapatinib; first compound 316.23 µM): 0.688
relative viability (Metformin + Lapatinib; first compound 1000 µM): 0.57
relative viability (Apatinib + OSI-027; first compound 0.08 µM): 0.678
relative viability (Apatinib + OSI-027; first compound 0.253 µM): 0.603
relative viability (Apatinib + OSI-027; first compound 0.8 µM): 0.693
relative viability (Apatinib + OSI-027; first compound 2.53 µM): 0.705
relative viability (Apatinib + OSI-027; first compound 8 µM): 0.603

HCC-366
relative viability (Metformin + Foretinib; first compound 10 µM): 1.09
relative viability (Metformin + Foretinib; first compound 31.62 µM): 0.928
relative viability (Metformin + Foretinib; first compound 100 µM): 0.881
relative viability (Metformin + Foretinib; first compound 316.23 µM): 0.955
relative viability (Metformin + Foretinib; first compound 1000 µM): 0.943
relative viability (Metformin + Lapatinib; first compound 10 µM): 1.05
relative viability (Metformin + Lapatinib; first compound 31.62 µM): 1.05
relative viability (Metformin + Lapatinib; first compound 100 µM): 1
relative viability (Metformin + Lapatinib; first compound 316.23 µM): 1.07
relative viability (Metformin + Lapatinib; first compound 1000 µM): 1.01
relative viability (Apatinib + OSI-027; first compound 0.08 µM): 1.06
relative viability (Apatinib + OSI-027; first compound 0.253 µM): 0.88
relative viability (Apatinib + OSI-027; first compound 0.8 µM): 0.815
relative viability (Apatinib + OSI-027; first compound 2.53 µM): 0.744
relative viability (Apatinib + OSI-027; first compound 8 µM): 0.494
relative viability (Apatinib + AZD7762; first compound 0.08 µM): 0.283
relative viability (Apatinib + AZD7762; first compound 0.253 µM): 0.457
relative viability (Apatinib + AZD7762; first compound 0.8 µM): 0.135
relative viability (Apatinib + AZD7762; first compound 2.53 µM): 0.128
relative viability (Apatinib + AZD7762; first compound 8 µM): 0.0774

HOP-62
relative viability (Metformin + Foretinib; first compound 10 µM): 0.882
relative viability (Metformin + Foretinib; first compound 31.62 µM): 1.08
relative viability (Metformin + Foretinib; first compound 100 µM): 1.08
relative viability (Metformin + Foretinib; first compound 316.23 µM): 0.985
relative viability (Metformin + Foretinib; first compound 1000 µM): 1
relative viability (Metformin + Lapatinib; first compound 10 µM): 0.725
relative viability (Metformin + Lapatinib; first compound 31.62 µM): 1.05
relative viability (Metformin + Lapatinib; first compound 100 µM): 0.891
relative viability (Metformin + Lapatinib; first compound 316.23 µM): 0.777
relative viability (Metformin + Lapatinib; first compound 1000 µM): 1.05
relative viability (Apatinib + OSI-027; first compound 0.08 µM): 0.917
relative viability (Apatinib + OSI-027; first compound 0.253 µM): 0.874
relative viability (Apatinib + OSI-027; first compound 0.8 µM): 0.799
relative viability (Apatinib + OSI-027; first compound 2.53 µM): 0.714
relative viability (Apatinib + OSI-027; first compound 8 µM): 0.605
relative viability (Apatinib + AZD7762; first compound 0.08 µM): 0.676
relative viability (Apatinib + AZD7762; first compound 0.253 µM): 0.536
relative viability (Apatinib + AZD7762; first compound 0.8 µM): 0.453
relative viability (Apatinib + AZD7762; first compound 2.53 µM): 0.361
relative viability (Apatinib + AZD7762; first compound 8 µM): 0.348

A549
relative viability (Metformin + Foretinib; first compound 10 µM): 0.867
relative viability (Metformin + Foretinib; first compound 31.62 µM): 0.9
relative viability (Metformin + Foretinib; first compound 100 µM): 0.9
relative viability (Metformin + Foretinib; first compound 316.23 µM): 0.853
relative viability (Metformin + Foretinib; first compound 1000 µM): 0.944
relative viability (Metformin + Lapatinib; first compound 10 µM): 0.946
relative viability (Metformin + Lapatinib; first compound 31.62 µM): 0.934
relative viability (Metformin + Lapatinib; first compound 100 µM): 0.909
relative viability (Metformin + Lapatinib; first compound 316.23 µM): 0.722
relative viability (Metformin + Lapatinib; first compound 1000 µM): 0.923

HCC-827
relative viability (Metformin + Foretinib; first compound 31.62 µM): 0.899
relative viability (Metformin + Foretinib; first compound 100 µM): 0.974
relative viability (Metformin + Foretinib; first compound 316.23 µM): 0.807
relative viability (Metformin + Foretinib; first compound 1000 µM): 0.889
relative viability (Metformin + Lapatinib; first compound 31.62 µM): 0.216
relative viability (Metformin + Lapatinib; first compound 100 µM): 0.185
relative viability (Metformin + Lapatinib; first compound 316.23 µM): 0.232
relative viability (Metformin + Lapatinib; first compound 1000 µM): 0.18
relative viability (Apatinib + OSI-027; first compound 0.08 µM): 0.856
relative viability (Apatinib + OSI-027; first compound 0.253 µM): 0.742
relative viability (Apatinib + OSI-027; first compound 0.8 µM): 0.575
relative viability (Apatinib + OSI-027; first compound 2.53 µM): 0.719
relative viability (Apatinib + OSI-027; first compound 8 µM): 0.642
relative viability (Apatinib + AZD7762; first compound 0.08 µM): 0.166
relative viability (Apatinib + AZD7762; first compound 0.253 µM): 0.213
relative viability (Apatinib + AZD7762; first compound 0.8 µM): 0.165
relative viability (Apatinib + AZD7762; first compound 2.53 µM): 0.141
relative viability (Apatinib + AZD7762; first compound 8 µM): 0.158

NCI-H1395
relative viability (Metformin + Foretinib; first compound 10 µM): 0.965
relative viability (Metformin + Foretinib; first compound 31.62 µM): 1
relative viability (Metformin + Foretinib; first compound 100 µM): 1.04
relative viability (Metformin + Foretinib; first compound 316.23 µM): 0.883
relative viability (Metformin + Foretinib; first compound 1000 µM): 0.997
relative viability (Metformin + Lapatinib; first compound 10 µM): 1.11
relative viability (Metformin + Lapatinib; first compound 31.62 µM): 1.25
relative viability (Metformin + Lapatinib; first compound 100 µM): 1.36
relative viability (Metformin + Lapatinib; first compound 316.23 µM): 0.963
relative viability (Metformin + Lapatinib; first compound 1000 µM): 0.576
relative viability (Apatinib + OSI-027; first compound 0.08 µM): 0.614
relative viability (Apatinib + OSI-027; first compound 0.253 µM): 0.701
relative viability (Apatinib + OSI-027; first compound 0.8 µM): 0.662
relative viability (Apatinib + OSI-027; first compound 2.53 µM): 0.693
relative viability (Apatinib + OSI-027; first compound 8 µM): 0.639
relative viability (Apatinib + AZD7762; first compound 0.08 µM): 0.438
relative viability (Apatinib + AZD7762; first compound 0.253 µM): 0.425
relative viability (Apatinib + AZD7762; first compound 0.8 µM): 0.407
relative viability (Apatinib + AZD7762; first compound 2.53 µM): 0.361
relative viability (Apatinib + AZD7762; first compound 8 µM): 0.373

SK-MES-1
relative viability (Metformin + Foretinib; first compound 10 µM): 0.915
relative viability (Metformin + Foretinib; first compound 31.62 µM): 0.888
relative viability (Metformin + Foretinib; first compound 100 µM): 0.874
relative viability (Metformin + Foretinib; first compound 316.23 µM): 0.912
relative viability (Metformin + Foretinib; first compound 1000 µM): 1.18
relative viability (Metformin + Lapatinib; first compound 10 µM): 0.452
relative viability (Metformin + Lapatinib; first compound 31.62 µM): 0.488
relative viability (Metformin + Lapatinib; first compound 100 µM): 0.516
relative viability (Metformin + Lapatinib; first compound 316.23 µM): 0.463
relative viability (Metformin + Lapatinib; first compound 1000 µM): 0.485
relative viability (Apatinib + OSI-027; first compound 0.08 µM): 0.589
relative viability (Apatinib + OSI-027; first compound 0.253 µM): 0.585
relative viability (Apatinib + OSI-027; first compound 0.8 µM): 0.6
relative viability (Apatinib + OSI-027; first compound 2.53 µM): 0.496
relative viability (Apatinib + OSI-027; first compound 8 µM): 0.37

NCI-H2023
relative viability (Metformin + Foretinib; first compound 10 µM): 0.99
relative viability (Metformin + Foretinib; first compound 31.62 µM): 0.828
relative viability (Metformin + Foretinib; first compound 100 µM): 0.854
relative viability (Metformin + Foretinib; first compound 316.23 µM): 0.909
relative viability (Metformin + Foretinib; first compound 1000 µM): 0.47
relative viability (Metformin + Lapatinib; first compound 31.62 µM): 0.975
relative viability (Metformin + Lapatinib; first compound 100 µM): 0.74
relative viability (Metformin + Lapatinib; first compound 1000 µM): 0.764
relative viability (Apatinib + OSI-027; first compound 0.08 µM): 0.499
relative viability (Apatinib + OSI-027; first compound 0.253 µM): 0.42
relative viability (Apatinib + OSI-027; first compound 0.8 µM): 0.342
relative viability (Apatinib + OSI-027; first compound 2.53 µM): 0.296
relative viability (Apatinib + OSI-027; first compound 8 µM): 0.207

NCI-H1299
relative viability (Metformin + Foretinib; first compound 10 µM): 1.09
relative viability (Metformin + Foretinib; first compound 31.62 µM): 1.12
relative viability (Metformin + Foretinib; first compound 100 µM): 1.14
relative viability (Metformin + Foretinib; first compound 316.23 µM): 1.11
relative viability (Metformin + Foretinib; first compound 1000 µM): 1.13
relative viability (Metformin + Lapatinib; first compound 10 µM): 0.973
relative viability (Metformin + Lapatinib; first compound 31.62 µM): 1.03
relative viability (Metformin + Lapatinib; first compound 100 µM): 1.04
relative viability (Metformin + Lapatinib; first compound 316.23 µM): 1.01
relative viability (Metformin + Lapatinib; first compound 1000 µM): 0.999
